Series [1] relates to Molm14 par. In words: Cell proliferation (CellTiter-Glo, 48 h), Molm14 par. The following applies: Homo sapiens, MOLM-14. The series is classed as cell-based. The source says: (§1) Stable BaF3 populations expressing activated FLT3 were generated by retroviral spinfection with the appropriate mutated plasmid followed by selection and growth factor withdrawal as previously described. The BaF3 cell line was originally obtained from the laboratory of Charles Sawyers and has not been authenticated. MV411 and Molm14 cells were obtained from the laboratory of Scott Kogan and authenticated by Promega STR analysis in June 2013. All cell lines were mycoplasma-free. Cells were incubated with compounds for 48 hours and proliferation was assessed using CellTiter-Glo (Promega; Madison, WI) according to the manufacturer’s recommendation on a SpectraMax M3 microplate reader using SpectraMax Software (Molecular Devices; Sunnyvale, CA). All cell viability data shown is reflective of experiments performed a minimum of three times. […]
(§2) S13. Cell Cultures: Stable BaF3 populations expressing activated FLT3 were generated by retroviral spinfection with the appropriate mutated plasmid followed by selection and growth factor withdrawal as previously described .4 The BaF3 cell line was originally obtained from the laboratory of Charles Sawyers and has not been authenticated. MV411 and Molm14 cells were obtained from the laboratory of Scott Kogan and authenticated by Promega STR analysis in June
(§3) 2013. All cell lines were mycoplasma -free. Cells were incubated with compounds for 48 hours and proliferation was assessed using CellTiter -Glo (Promega; Madison, WI) according to the manufacturer’s recommendation on a SpectraMax M3 microplate reader using SpectraMax Software (Molecular Devices; Sunnyvale, CA). All cell viability data shown is reflective of experiments performed a minimum of three times.
(In ATP-based viability assays light output follows the ATP content of the culture.)

For series [2], the system named is Molm14^F691L. In words: Cell proliferation (CellTiter-Glo, 48 h), Molm14 F691L. The following applies: Homo sapiens, MOLM-14; Molm14^F691L, 48 hours. The series is classed as cell-based.
Source text: as §1, §2, §3

The test system of series [3] is Molm14^D835Y. In words: Cell proliferation (CellTiter-Glo, 48 h), Molm14 D835Y. As to conditions: Homo sapiens, MOLM-14; Molm14^D835Y, 48 hours. The series is classed as cell-based.
Source text: as §1, §2, §3

For series [4], the system named is MV4–11 AML cells. Put plainly: Cell proliferation (CellTiter-Glo, 48 h), MV4-11. The series is classed as cell-based. The following applies: Homo sapiens; MV4–11, 48 hours.
Source text: as §1, §2, §3

Series [5] deals with Ba/F3 FLT3-ITD. Put plainly: Cell proliferation (CellTiter-Glo, 48 h), Ba/F3 FLT3-ITD. The series is classed as cell-based.
Source text: as §1, §2, §3

Series [6] deals with T1, FLT3 kinase (Homo sapiens, UniProt P36888).
T1 construct: purchased Invitrogen
T1 sequence (P36888 27-993): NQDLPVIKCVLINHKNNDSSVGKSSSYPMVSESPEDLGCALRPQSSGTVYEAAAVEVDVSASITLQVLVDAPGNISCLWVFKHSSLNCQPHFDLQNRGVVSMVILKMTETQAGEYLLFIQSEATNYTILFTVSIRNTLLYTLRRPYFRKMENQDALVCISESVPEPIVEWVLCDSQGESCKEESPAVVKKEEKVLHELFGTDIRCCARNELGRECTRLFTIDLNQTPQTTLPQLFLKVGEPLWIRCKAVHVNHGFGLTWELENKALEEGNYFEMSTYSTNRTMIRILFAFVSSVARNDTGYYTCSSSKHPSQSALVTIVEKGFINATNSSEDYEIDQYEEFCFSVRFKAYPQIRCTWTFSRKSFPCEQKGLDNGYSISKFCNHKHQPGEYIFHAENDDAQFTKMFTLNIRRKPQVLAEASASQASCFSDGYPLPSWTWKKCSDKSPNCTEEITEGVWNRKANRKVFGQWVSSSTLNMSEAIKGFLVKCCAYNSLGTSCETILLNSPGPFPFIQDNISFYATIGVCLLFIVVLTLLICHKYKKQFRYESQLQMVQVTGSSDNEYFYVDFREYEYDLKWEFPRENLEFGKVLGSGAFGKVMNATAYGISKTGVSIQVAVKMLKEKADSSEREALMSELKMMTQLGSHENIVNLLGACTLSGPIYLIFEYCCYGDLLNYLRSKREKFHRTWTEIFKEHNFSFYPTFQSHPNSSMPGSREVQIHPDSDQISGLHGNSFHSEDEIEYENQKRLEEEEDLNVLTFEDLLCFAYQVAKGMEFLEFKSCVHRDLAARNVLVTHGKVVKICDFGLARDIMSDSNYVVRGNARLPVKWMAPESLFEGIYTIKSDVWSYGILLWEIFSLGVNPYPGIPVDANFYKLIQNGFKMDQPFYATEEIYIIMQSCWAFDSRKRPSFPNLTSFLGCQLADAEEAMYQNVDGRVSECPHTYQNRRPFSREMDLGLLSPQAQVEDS
Put plainly: Biochemical enzyme inhibition assay (microfluidics, Caliper EZ Reader II), FLT3. The following applies: for IC50: in vitro kinase assay, 60 min pre-incubation, ATP 190 µM, three independent experiments, read-out: FLT3 IC50 (nM) ± SD; for LE: ligand efficiency for FLT3 inhibition. On the procedure: Kinase activity was measured in a microfluidics assay that monitors the separation of a phosphorylated product from substrate[31],[32]. […] After, 1 μL was transferred into a 384-well polypropylene assay plate (Greiner, Frickenhausen, Germany). The FLT3 enzyme (Invitrogen™, Grand Island, USA) was diluted in kinase buffer to a concentration of 2 nM and 5 µL of the enzyme mixture was transferred to the assay plate. The inhibitors/FLT3 enzyme were incubated for 60 minutes with minor shaking. […] For positive control, no inhibitor was added. For negative control, no enzyme was added. For running control, quizartinib was utilized. The plate was run until 10–20% conversion based on the positive control wells. The following separation conditions were utilized: upstream voltage −500V; downstream voltage, −1900V; chip pressure −0.8. Percent inhibition was measured for each well comparing starting peptide to phosphorylated product peaks relative to the baseline. Dose response curves, spanning the IC50 dose, were generated in GraphPad Prisim 6 and fit to an exponential one-phase decay line and IC50 values were obtained from the half-life value of the curve. IC50 values were generated in duplicate and error was calculated from the standard deviation between values.
S10. Biochemical Inhibition Assay:1,2 Kinase activity was measured in a microfluidics assay that monitors the separation of a phosphorylated product from substrate. The assay was run using a 12-sipper chip on a Caliper EZ Reader II (PerkinElmer®, Walthman, USA) with separation […]
Walthman, USA]). In 96-well polypropylene plates (Greiner, Frickenhausen, Germany) […]
After, 1 μL was transferred into a 384-well polypropylene assay plate (Greiner, Frickenhausen, Germany). The FLT3 enzyme (Invitrogen™, Grand Island, USA) was diluted in kinase buffer to a concentration of 2 nM and 5 µL of the enzyme mixture was transferred to the assay plate. The inhibitors/FLT3 enzyme were incubated for 60 minutes with minor shaking. A substrate mix was prepared containing ATP (Ambresco®, Solon, USA) and […]
USA) dissolved in kinase buffer, and 5 µL of the substrate mix was added to the assay plate.
For positive control, no inhibitor was added. For negative control, no enzyme was added. For running control, quizartinib was utilized. The plate was run until 10-20% conversion based on the positive control wells. The following separation conditions were utilized: upstream voltage -500V; downstream voltage, -1900V; chip pressure - 0.8. Percent inhibition was measured for each well comparing starting peptide to phosphorylated product peaks relative to the baseline. Dose response curves, spanning the IC50 dose, were generated in GraphPad Prisim 6 and fit to an exponential one-phase decay line and IC50 values were obtained from the half-life value of the curve. IC50 values were generated in duplicate and error was calculated from the standard deviation between values. […]

For series [7], the system named is FLT3-driven cell lines. In words: Cell-based studies, FLT3-driven cell lines overall. The following applies: result in words.
Source text: as §1
S13. […]
2013. […] Cells were incubated with compounds for 48 hours and proliferation was assessed using CellTiter -Glo (Promega; Madison, WI) according to the manufacturer’s recommendation on a SpectraMax M3 microplate reader using SpectraMax Software (Molecular Devices; Sunnyvale, CA). […]

The term GI50 denotes the concentration at which growth is held to half of that of the control. Read a low GI50 as greater sensitivity of the cells. One may read the melting point as the temperature of the solid-liquid transition. One may read the IC50 as the point on the concentration scale where inhibition reaches its midpoint. The molecule `CNc1cc(Nc2ccc(CC(=O)Nc3cc(C(C)(C)C)nn3C)cc2)ncn1` [13b, 2-(4-(6-(Methylamino)pyrimidin-4-ylamino)phenyl)-N-(3-tert-butyl-1-methyl-1H-pyrazol-5-yl)acetamide] registered a melting point of 194 to 196 °C. This molecule also had a 50% growth inhibitory concentration (GI50) in series [1] of 187 nM. This molecule also gave a GI50 in series [2] of 1350 nM. Also, in series [3], the GI50 was determined as 2230 nM. Moreover, in series [4], the GI50 was 80.6 nM. Besides, in series [5], the GI50 was 158 nM. Also, in series [6], the IC50 was determined as 37.5 ± 13 nM and the LE was 0.35.

Molecule `CNc1cc(Nc2ccc(CC(=O)Nc3ccc(S(C)(=O)=O)cc3)cc2)ncn1` [13v, 2-(4-(6-(methylamino)pyrimidin-4-ylamino)phenyl)-N-(4-(methylsulfonyl)phenyl) acetamide] showed a melting point of 220 to 222 °C. Moreover, the GI50 in series [1] was greater than 10000 nM. For the same molecule, the 50% growth inhibitory concentration (GI50) in series [2] is greater than 10000 nM. The same molecule displayed a GI50 in series [3] greater than 10000 nM. The GI50 in series [4] is greater than 10000 nM. Further, in series [5], the GI50 is greater than 10000 nM. For the same molecule, in series [6], the IC50 turned out to be 2120 ± 401 nM and the LE turned out to be 0.27.

With `Cn1nc(C(C)(C)C)cc1NC(=O)Cc1ccc(Nc2cc(NCCCN3CCCC3)ncn2)cc1` [13d, 2-(4-(6-(3-(Pyrrolidin-1-yl)propylamino)pyrimidin-4-ylamino)phenyl)-N-(3-tert-butyl-1-methyl-1H-pyrazol-5-yl)acetamide], the GI50 in series [4] came to 2250 nM. Moreover, the “inhibition of FLT3-driven cellular growth” value in series [7] is recorded as “failed to effectively inhibit FLT3-driven cellular growth”. In series [6], the IC50 was 377 ± 20 nM and the LE was 0.24.

`CNc1cc(Nc2ccc(CC(=O)Nc3cccc(C(F)(F)F)c3)cc2)ncn1` [13r, 2-(4-(6-(Methylamino)pyrimidin-4-ylamino)phenyl)-N-(3-(trifluoromethyl)phenyl) acetamide] showed a melting point of 216 to 218 °C. The same molecule came in with a GI50 in series [1] of 187 nM. For the same molecule, halving of growth in series [2] (GI50) required 1350 nM. In series [3], this molecule came in with a GI50 of 2230 nM. In series [4], this molecule had a GI50 of 80.6 nM. The same molecule registered a 50% growth inhibitory concentration (GI50) in series [5] of 266 nM. Moreover, in series [6], the IC50 turned out to be 411 ± 236 nM and the LE is on record as 0.30.

Source of the values: article PMC5829162, “Rational Design, Synthesis and Biological Evaluation of Pyrimidine-4,6-diamine derivatives as Type-II inhibitors of FLT3 Selective Against c-KIT” (Scientific Reports, 2018).
